Assay results: patent US20040127739A1, “Novel n-p-propargyloxyphenethyl-thioacetic acid amides” (priority 2001, published 2004)

Columns and labels:
Assay type in all cases: in vivo
Phytophthora [1] = assay: Action against Phytophthora on potato plants (residual-protective / systemic); conditions: potato plants (Bintje variety), untreated plants showed pathogen attack of 80% to 100%, read-out: inhibition of fungal infestations
Experimental: Action Against Phytophthora on Potato Plants
(§1) a) Residual-protective Action
(§2) 2-3 week old potato plants (Bintje variety) are sprayed with a spray mixture (0.02% active ingredient) prepared from a wettable powder formulation of the test compound. After 48 hours, the treated plants are infected with a sporangia suspension of the fungus. Fungus infestation is evaluated after incubation of the infected plants for 4 days at 90-100% relative humidity and +20° C.
as §2, with “watered” for “sprayed”, “ingredient based on the volume of the soil)” for “ingredient)”, “compound. […]” for “compound.”

Phytophthora [2] = assay: Action against Phytophthora on tomato plants (residual-protective / systemic); conditions: untreated plants showed pathogen attack of 80% to 100%, read-out: inhibition of fungal infestations
Experimental: Action Against Phytophthora on Tomato Plants
as §1
(§3) After a cultivation period of 3 weeks, tomato plants are sprayed with a spray mixture (0.02% active ingredient) prepared from a wettable powder formulation of the test compound. After 48 hours, the treated plants are infected with a sporangia suspension of the fungus. Fungus infestation is evaluated after incubation of the infected plants for 5 days at 90-100% relative humidity and +20° C.
as §3, with “watered” for “sprayed”, “ingredient based on the volume of the soil)” for “ingredient)”, “compound. […]” for “compound.”, “96” for “48”, “4” for “5”

Plasmopara viticola = assay: Action against Plasmopara viticola on vines (residual-protective / residual-curative); conditions: vine seedlings, untreated plants showed pathogen attack of 80% to 100%, read-out: inhibition of fungal infestations
Experimental: Action Against Plasmopara viticola on Vines a) Residual-protective Action
Vine seedlings are sprayed at the 4- to 5-leaf stage with a spray mixture (0.02% active ingredient) prepared from a wettable powder formulation of the test compound. After 24 hours, the treated plants are infected with a sporangia suspension of the fungus. Fungus infestation is evaluated after incubation for 6 days at 95-100% relative humidity and +20° C. […]
b) Residual-curative Action
Vine seedlings are infected at the 4- to 5-leaf stage with a sporangia suspension of the fungus. After incubation for 24 hours in a humidity chamber at 95-100% relative humidity and +20° C., the infected plants are dried and sprayed with a spray mixture (0.02% active ingredient) prepared from a wettable powder formulation of the test compound. After the spray coating has dried, the treated plants are placed in the humidity chamber again. Fungus infestation is evaluated 6 days after infection.

| Compound | inhibition at 200 ppm (Phytophthora [1]) | inhibition at 200 ppm (Phytophthora [2]) | inhibition at 200 ppm (Plasmopara viticola) |
| --- | --- | --- | --- |
| C#CCOc1ccc(CCNC(=S)C(O)c2ccc(Br)cc2)cc1OC (stereo not shown) [Compound A2.02, 2-(4-bromo-phenyl)-2-hydroxy-N-[2-(3-methoxy-4-prop-2-ynyloxy-phenyl)-ethyl]-thioacetamide] | 80 to 100% | 80 to 100% | 80 to 100% |
| C#CCOc1ccc(CCNC(=S)C(OC(C)=O)c2ccc(Cl)cc2)cc1OC (stereo not shown) [Compound A1.03, 2-acetoxy-2-(4-chloro-phenyl)-N-[2-(3-methoxy-4-prop-2-ynyloxy-phenyl)-ethyl]-thioacetamide] | 80 to 100% | 80 to 100% | 80 to 100% |
| C#CCOc1ccc(CCNC(=S)C(OCC#C)c2ccc(Cl)cc2)cc1OC (stereo not shown) [Compound A1.01, 2-(4-Chloro-phenyl)-N-[2-(3-methoxy-4-prop-2-ynyloxy-phenyl)-ethyl]-2-(prop-2-ynyloxy)-thioacetamide] | 80 to 100% | 80 to 100% | 80 to 100% |
| C#CCOc1ccc(CCNC(=S)C(OC(C)=O)c2ccc(Br)cc2)cc1OC (stereo not shown) [Compound A1.04, 2-acetoxy-2-(4-bromo-phenyl)-N-[2-(3-methoxy-4-prop-2-ynyloxy-phenyl)-ethyl]-thioacetamide] | 80 to 100% |  |  |
| C#CCOc1ccc(CCNC(=S)C(O)c2ccc(Cl)cc2)cc1OC (stereo not shown) [Compound A2.01, 2-(4-Chloro-phenyl)-2-hydroxy-N-[2-(3-methoxy-4-prop-2-ynyloxy-phenyl)-ethyl]-thioacetamide] | 80 to 100% | 80 to 100% | 80 to 100% |
| C#CCOc1ccc(CCNC(=S)C(OCC#C)c2ccc(Br)cc2)cc1OC (stereo not shown) [Compound A1.02, 2-(4-bromo-phenyl)-N-[2-(3-methoxy-4-prop-2-ynyloxy-phenyl)-ethyl]-2-(prop-2-ynyloxy)-thioacetamide] | 80 to 100% | 80 to 100% | 80 to 100% |
